In US5464617A, “β-lactam compounds” (Hoffmann-La Roche Inc., priority 1994, dated 1995):
Values after ≈ are worked out from the molar mass of the structure shown. Counter-ions that a name gives are not always drawn.

How the values were obtained:
[1] = system: Citrobacter freundii 1982; assay: MIC in vitro of a 1:4 combination of ceftriaxone with a compound of formula I (Test D); type: cell-based; details: Table 4; test D, 1:4 combination of ceftriaxone with the compound
Protocol: The minimum inhibitory concentration in vitro ([…]) of a 1:4 combination of ceftriaxone with a compound of formula I against Citrobacter freundii 1982 was measured and compiled in Table 2 hereinafter.

E. coli 1346 = assay: Antibacterial activity of the products per se, serial dilution method in liquid medium (Test E); type: cell-based; details: Table 4; test E, product per se
Source text: The antibacterial activity of the products per se is illustrated on the basis of Table 3 hereinafter, the minimum inhibitory concentration […] in vitro against E. coli 1346 being determined using the serial dilution method in liquid medium: […]

Compound | MIC C. freundii 1982 (D) [1] [µg/mL] | MIC E. coli 1346 (E) (E. coli 1346) [µg/mL]
CC(=O)N1C[C@H]2OC(CSc3nnnn3CC(=O)NOC(c3ccccc3)(c3ccccc3)c3ccccc3)=C(C(=O)O)N3C(=O)[C@@H]1[C@@H]23 [32(h), (1aS,3aR,6bS)-2-Acetyl-1-oxo-5-(1-(trityloxycarbamoylmethyl)-1H-tetrazol-5-ylsulphanylmethyl)-1,1a,2,3,3a,6b-hexahydro-4-oxa-2,6 a-diazacyclobut[cd]indene-6-carboxylic acid sodium salt] | 64 | > 32
O=C(NC1CC1)OCC1=C(C(=O)O)N2C(=O)[C@@H]3[C@H]2[C@H](C1)CN3C(=O)C(F)(F)F [94(b), (1aS,3aR,6bR)-5-Cyclopropylcarbamoyloxymethyl-1-oxo-2-trifluoroacetyl-1a,2,3,3a,4,6b-hexahydro-1H-2,6 a-diazacyclobut[cd]indene-6-carboxylic acid sodium salt] | 1 | 2
Cn1nnnc1SCC1=C(C(=O)O)N2C(=O)[C@@H]3[C@H]2[C@@H](CN3C(=O)Nc2ccc(O)cc2)S1 [41(d), (1aS,3aR,6bS)-2-(4-Hydroxy-phenylcarbamoyl)-5-(1-methyl-1H-tetrazol-5-ylsulphanylmethyl)-1-oxo-4-thia-1,1a,2,3,3a,6b-hexahydro-2,6a-diazacyclobut[cd]indene-6-carboxylic acid sodium salt] | 0.5 | > 32
O=C(Cn1nnnc1SCC1=C(C(=O)O)N2C(=O)[C@H]3NC[C@@H](O1)[C@H]32)NC1CC1 [Example 29(g), (1aS,3aR,6bS)-5-(1-(cyclopropyl-carbamoylmethyl)-1H-tetrazol-5-ylsulphanylmethyl)-1-oxo-1,1a,2,3,3a,6b-hexahydro-4-oxa-2,6a-diazacyclobut[cd]indene-6-carboxylic acid] | 8 | 8 (≈ 19.6 µM)
Cn1nnnc1SCC1=C(C(=O)O)N2C(=O)[C@@H]3[C@H]2[C@@H](CN3C(=O)CSc2nnc(N)s2)S1 [42(c), (1aS,3aR,6bS)-2-(2-Amino-1,3,4-thiadiazol-5-ylsulphanylacetyl)-5-(1-methyl-1H-tetrazol-5-ylsulphanylmethyl)-1-oxo-4-thia-1,1a,2,3,3a,6b-hexahydro-2,6a-diazacyclobut[cd]indene-6-carboxylic acid sodium salt] | 0.2 | 16
NC(=O)CNC(=O)OCC1=C(C(=O)O)N2C(=O)[C@@H]3[C@H]2[C@H](C1)CN3C(=O)C(F)(F)F [96(b), (1aS,3aR,6bR) 5-Carbamoylmethylcarbamoyloxymethyl-1-oxo-2-trifluoroacetyl-1a,2,3,3a,4,6b-hexahydro-1H-2,6a-diazacyclobut[cd]indene-6-carboxylic acid sodium salt] | 0.5 | 2
CC(=O)N1C[C@H]2CC(COC(N)=O)=C(C(=O)O)N3C(=O)[C@@H]1[C@@H]23 [58(a), (1aS,3aR,6bR)-2-Acetyl-5-carbamoyloxymethyl-1-oxo-1a,2,3,3a,4,6b-hexahydro-1H-2,6a-diazacyclobut[cd]indene-6-carboxylic acid sodium salt] | 2 | > 32
O=C(NCc1ccc(O)cc1)OCC1=C(C(=O)O)N2C(=O)[C@@H]3[C@H]2[C@H](C1)CN3C(=O)C(F)(F)F [102(b), (1aS,3aR,6bR)-5-[(4-Hydroxy-benzyl)-carbamoyloxymethyl]-2-trifluoroacetyl-1-oxo-1a,2,3,3a,4,6b-hexahydro-1H-2,6a-diazacyclobut[cd]indene-6-carboxylicacid sodium salt] | 2 | 1
